± gives the standard deviation of the averaged measurements.
Assays:
Experiment in all cases: level (log10 ratio to DMSO vehicle control); higher = higher biomarker level / cell amount than vehicle control
Settings in all cases: in DMSO
[1] = compound: O=S(=O)(O)C(F)(F)C(F)(F)C(F)(F)C(F)(F)C(F)(F)C(F)(F)C(F)(F)C(F)(F)F [Perfluorooctanesulfonic acid]
Description: (§1)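 BioMAP Diversity Plus panel of 12 human primary cell co-culture systems (3C, 4H, LPS, SAg, BT, BF4T, BE3C, CASM3C, HDF3CGF, KF3CT, MyoF, Mphg). Compounds were added 1 h before stimulation and left for 24 h (MyoF 48 h; BT 72 h for soluble read-outs or 6 d for IgG). Biomarkers were read by ELISA, cytotoxicity by SRB, PBMC viability and proliferation by Alamar Blue. Each well value was divided by the mean of 8 DMSO control wells on the same plate and log10 transformed; duplicate blinded samples were tested at 4 concentrations.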

[2] = compound: Cn1cnc([N+](=O)[O-])c1Sc1ncnc2[nH]cnc12 [Azathioprine]
Description: as §1

[3] = compound: O=C(O)CCC(F)(F)C(F)(F)C(F)(F)F [3:3 Fluorotelomer carboxylic acid]
Description: as §1

[4] = compound: O=C(O)C(F)(F)C(F)(F)C(F)(F)C(F)(F)C(F)(F)C(F)(F)C(F)(F)C(F)(F)Cl [9-Chloro-perfluorononanoic acid]
Description: as §1

[5] = compound: CC(C)(C)C(=O)CC(=O)C(F)(F)C(F)(F)C(F)(F)F [(Heptafluorobutanoyl)pivaloylmethane]
Description: as §1

[6] = compound: O=P(O)(O)CCC(F)(F)C(F)(F)C(F)(F)C(F)(F)C(F)(F)C(F)(F)C(F)(F)C(F)(F)F [((Perfluorooctyl)ethyl)phosphonic acid]
Description: as §1

Test System | level (log10) ([1]; 6700 nM) | level (log10) ([1]; 20000 nM) | level (log10) ([1]; 60000 nM) | level (log10) ([2]; 1400 nM) | level (log10) ([2]; 4200 nM) | level (log10) ([2]; 13000 nM) | level (log10) ([2]; 38000 nM) | level (log10) ([3]; 6700 nM) | level (log10) ([3]; 20000 nM) | level (log10) ([3]; 60000 nM) | level (log10) ([4]; 6700 nM) | level (log10) ([4]; 20000 nM) | level (log10) ([5]; 6700 nM) | level (log10) ([5]; 20000 nM) | level (log10) ([5]; 60000 nM) | level (log10) ([6]; 6700 nM) | level (log10) ([6]; 20000 nM) | level (log10) ([6]; 60000 nM)
LPS:CD40 | -0.018 | -0.0345 ± 0.022 | -0.076 ± 0.073 | -0.041 ± 0.03 | -0.04 ± 0.016 | -0.08 ± 0.047 | -0.148 ± 0.03 | -0.0035 ± 0.021 | 0.027 ± 0.028 | -0.014 ± 0.051 | 0.02 ± 0.064 | 0.055 ± 0.0071 | 0.0275 ± 0.066 | 0.028 ± 0.068 | 0.0515 ± 0.0021 | -0.042 ± 0.041 | -0.0535 ± 0.00071 | -0.148 ± 0.0035
LPS:CD62E/E-Selectin | -0.002 ± 0.0014 | -0.0055 ± 0.036 | 0.019 ± 0.0028 | 0.0155 ± 0.0035 | 0.0075 ± 0.015 | 0.0145 ± 0.013 | -0.006 | -0.0045 ± 0.015 | -0.016 ± 0.0057 | 0.0075 ± 0.011 | -0.0095 ± 0.033 | 0.034 ± 0.0057 | -0.0025 ± 0.005 | -0.0145 ± 0.021 | 0.004 ± 0.0042 | 0.0085 ± 0.018 | -0.0145 ± 0.015 | -0.012 ± 0.0057
LPS:CD69 | -0.018 ± 0.0057 | -0.0385 ± 0.0021 | -0.025 ± 0.014 | -0.0175 ± 0.00071 | -0.046 ± 0.0014 | -0.0345 ± 0.033 | -0.073 ± 0.04 | -0.0345 ± 0.09 | -0.016 ± 0.052 | -0.0435 ± 0.061 | -0.0335 ± 0.026 | -0.063 ± 0.028 | 0.0025 ± 0.026 | 0.007 | 0.063 ± 0.018 | -0.04 ± 0.0042 | -0.032 ± 0.018 | -0.0305 ± 0.023
LPS:CD106/VCAM-1 | -0.009 ± 0.0085 | -0.017 ± 0.011 | -0.023 ± 0.027 | -0.0125 ± 0.03 | -0.0215 ± 0.028 | -0.0595 ± 0.028 | -0.155 ± 0.025 | -0.0155 ± 0.0078 | 0.011 ± 0.0028 | -0.0145 ± 0.029 | -0.008 ± 0.045 | 0.003 ± 0.037 | -0.0315 ± 0.047 | -0.042 ± 0.017 | -0.021 ± 0.034 | -0.011 ± 0.017 | -0.0125 ± 0.0021 | -0.05 ± 0.0028
LPS:CD141/Thrombomodulin | -0.03 ± 0.0014 | -0.01 ± 0.0071 | -0.036 ± 0.031 | 0.046 ± 0.061 | 0.04 ± 0.037 | 0.0455 ± 0.035 | -0.0055 ± 0.067 | -0.0175 ± 0.022 | -0.001 ± 0.013 | 0.0035 ± 0.036 | 0.0485 ± 0.033 | 0.064 ± 0.03 | -0.013 ± 0.037 | -0.0095 ± 0.042 | 0.0325 ± 0.0021 | -0.02 ± 0.013 | -0.049 ± 0.0085 | 0.0065 ± 0.028
LPS:CD142/Tissue Factor | -0.0135 ± 0.00071 | -0.0265 ± 0.019 | -0.0105 ± 0.0092 | 0.042 ± 0.028 | 0.014 ± 0.0042 | 0.0375 ± 0.0064 | -0.0085 ± 0.044 | -0.014 ± 0.0014 | -0.014 ± 0.011 | -0.0015 ± 0.019 | 0.0165 ± 0.059 | 0.0375 ± 0.016 | 0.0055 ± 0.012 | 0.0385 ± 0.018 | 0.034 ± 0.0057 | -0.023 ± 0.0014 | -0.01 ± 0.0099 | 0.032 ± 0.033
LPS:CXCL8/IL-8 | -0.0005 ± 0.011 | 0.015 ± 0.02 | 0.0235 ± 0.046 | 0.035 ± 0.025 | 0.0065 ± 0.013 | 0.0085 ± 0.0092 | -0.049 ± 0.072 | 0.004 ± 0.0042 | -0.0105 ± 0.0021 | 0.0165 ± 0.03 | 0.019 ± 0.062 | 0.061 ± 0.048 | -0.019 ± 0.0099 | 0.015 ± 0.0057 | 0.0265 ± 0.013 | -0.021 ± 0.021 | -0.0255 ± 0.011 | -0.04 ± 0.0057
LPS:IL-1alpha | 0.0245 ± 0.043 | 0.023 ± 0.04 | 0.0215 ± 0.0021 | 0.0405 ± 0.067 | 0.04 ± 0.064 | 0.0165 ± 0.0064 | -0.0185 ± 0.00071 | -0.005 ± 0.0071 | -0.0245 ± 0.0078 | -0.0095 ± 0.029 | 0.038 ± 0.017 | 0.025 ± 0.021 | 0.0285 ± 0.00071 | 0.0365 ± 0.0021 | 0.0745 ± 0.026 | -0.0215 ± 0.043 | -0.0045 ± 0.029 | -0.024 ± 0.13
LPS:M-CSF | -0.022 ± 0.011 | 0 ± 0.031 | 0.008 ± 0.017 | -0.011 ± 0.025 | -0.024 ± 0.018 | -0.0475 ± 0.056 | -0.125 ± 0.0042 | -0.0335 ± 0.052 | -0.0095 ± 0.016 | 0.0215 ± 0.033 | -0.0125 ± 0.0078 | 0.0485 ± 0.047 | -0.004 ± 0.018 | 0 ± 0.0085 | -0.0125 ± 0.052 | -0.0385 ± 0.018 | -0.052 ± 0.037 | -0.183 ± 0.072
LPS:SRB | -0.003 ± 0.0085 | -0.003 ± 0.0028 | 0 | -0.002 ± 0.0099 | -0.0105 ± 0.0078 | -0.0215 ± 0.013 | -0.039 ± 0.014 | -0.008 ± 0.0014 | -0.0025 ± 0.0064 | 0.0065 ± 0.0064 | 0.0015 ± 0.012 | -0.0035 ± 0.013 | -0.006 | -0.0095 ± 0.0021 | -0.028 ± 0.0099 | -0.01 ± 0.0042 | -0.0195 ± 0.011 | -0.08 ± 0.047
LPS:sPGE2 | 0.01 ± 0.035 | -0.0315 ± 0.0092 | -0.075 ± 0.013 | -0.0075 ± 0.033 | 0.037 | -0.022 ± 0.018 | -0.0985 ± 0.03 | -0.0115 ± 0.0092 | -0.0165 ± 0.036 | 0.0205 ± 0.025 | 0.0175 ± 0.0092 | -0.0895 ± 0.0078 | 0.058 ± 0.013 | 0.04 ± 0.018 | 0.181 ± 0.023 | 0.0605 ± 0.0021 | 0.0675 ± 0.011 | 0.17 ± 0.023
LPS:sTNF-alpha | 0.0195 ± 0.079 | -0.043 ± 0.062 | -0.0545 ± 0.076 | -0.0135 ± 0.022 | -0.015 ± 0.0099 | -0.035 ± 0.017 | -0.233 ± 0.0078 | -0.0235 ± 0.023 | -0.0195 ± 0.019 | -0.0115 ± 0.032 | -0.0115 ± 0.0078 | -0.004 ± 0.014 | -0.001 ± 0.0014 | 0.0195 ± 0.0064 | 0.07 ± 0.014 | 0.0165 ± 0.088 | 0.008 ± 0.1 | -0.004 ± 0.18
SAg:CCL2/MCP-1 | 0.003 | 0.004 ± 0.0042 | 0.0015 ± 0.0064 | -0.004 ± 0.017 | -0.0275 ± 0.0064 | -0.054 ± 0.011 | -0.112 ± 0.056 | 0.005 ± 0.0014 | -0.0145 ± 0.016 | 0.0145 ± 0.028 | 0.017 ± 0.021 | -0.0055 ± 0.005 | -0.005 | -0.0155 ± 0.0035 | -0.0085 ± 0.05 | 0.006 ± 0.0042 | 0.004 ± 0.016 | -0.0195 ± 0.053
SAg:CD38 | -0.01 ± 0.021 | -0.0075 ± 0.00071 | -0.037 ± 0.018 | 0.0035 ± 0.0035 | -0.0035 ± 0.00071 | -0.0265 ± 0.013 | -0.0765 ± 0.03 | -0.012 ± 0.024 | 0.008 ± 0.013 | 0.0015 ± 0.0035 | -0.02 ± 0.021 | -0.0315 ± 0.028 | 0.0075 ± 0.097 | 0.017 ± 0.065 | -0.0125 ± 0.00071 | -0.015 ± 0.024 | -0.0155 ± 0.005 | -0.0945 ± 0.023

Reference: the supplement of paper PMC10331698
